Tests used:
[1] = biological target: T1, exogenous Geminin-Cdtl protein complex (Homo sapiens, UniProt O75496+Q9H211); assay: FRET acceptor photobleaching cellular assay in co-transfected MCF7 cells (Cdt1-GFP & Geminin-dhcRed); type: cell-based; conditions: 100µM, 24-hour incubation, MCF7 cells co-transfected with Cdt1-GFP & Geminin-dhcRed (Fig. 3)
T1 construct: expressed in transfected cells; host or cells: MCF7
T1 sequence (Q9H211 1-546): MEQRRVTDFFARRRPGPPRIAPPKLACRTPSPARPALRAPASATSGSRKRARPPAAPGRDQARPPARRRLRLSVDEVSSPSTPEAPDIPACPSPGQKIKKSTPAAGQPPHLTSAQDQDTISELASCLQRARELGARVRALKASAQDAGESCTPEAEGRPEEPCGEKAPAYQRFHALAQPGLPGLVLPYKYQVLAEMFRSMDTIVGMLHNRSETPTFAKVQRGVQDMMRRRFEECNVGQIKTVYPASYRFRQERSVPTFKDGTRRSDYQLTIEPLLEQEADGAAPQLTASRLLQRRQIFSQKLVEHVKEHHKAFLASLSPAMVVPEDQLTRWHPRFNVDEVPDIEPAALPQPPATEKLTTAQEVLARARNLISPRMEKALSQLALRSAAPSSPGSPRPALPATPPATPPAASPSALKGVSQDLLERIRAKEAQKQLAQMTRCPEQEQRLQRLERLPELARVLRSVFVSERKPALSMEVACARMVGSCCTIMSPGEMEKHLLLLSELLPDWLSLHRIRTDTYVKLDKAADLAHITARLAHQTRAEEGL
T1 sequence (O75496 1-209): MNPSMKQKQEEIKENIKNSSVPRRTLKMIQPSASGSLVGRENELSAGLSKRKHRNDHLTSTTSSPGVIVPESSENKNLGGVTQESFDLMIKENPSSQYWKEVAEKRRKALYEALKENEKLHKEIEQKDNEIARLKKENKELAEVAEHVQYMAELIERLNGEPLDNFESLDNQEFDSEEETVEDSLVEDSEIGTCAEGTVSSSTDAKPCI
Procedure: A cellular assay was developed and applied using epithelial cells of breast adenocarcinoma (MCF7), for the purpose of the ex vivo study of the ability of the synthetic chemical compound AF-615/30368009 to inhibit formation and/or disrupt the exogenous Geminin-Cdtl protein complex.
The appropriate number of cells was seeded onto glass coverslips and cells were allowed in culture in order to adhere. Then they were transiently co-transfected with plasmid expression vectors pcDNA3.1-EGFP and pdiHcRed-N1 containing the DNA regions encoding for the proteins Cdtl-GFP and Geminin-dhcRed respectively. Three to five hours after co-transfection, the medium was removed and replaced with fresh medium which contained the synthetic chemical compound AF-615/30368009 at a concentration of 100µM. […]
MCF7 cancer cells fixed as described above were used to perform FRET acceptor photobleaching. In order to quantify the efficiency (E) of the FRET phenomenon, the following equation was used: (4) E = (Dpost - Dpre)/Dpost, wherein Dpre and Dpost is the mean value of fluorescence intensity of the donor before and after photobleaching of the acceptor, respectively.
For the purposes of this invention the inhibitory effect of the synthetic compound AF-615/30368009 on the exogenous Geminin-Cdtl protein complex was calculated as the percent (%) change in efficiency (E) of the FRET phenomenon. […]

MCF7 cancer cells = assay: Cell cycle progression by propidium iodide flow cytometry, cancer cells; type: cell-based; conditions: 100 µM, 23hrs
Procedure: Since the proteins Geminin and Cdtl are key regulators of the cell cycle, the effect of the synthetic compound on the development of the cancer cell and normal cell cycle was studied. Staining of the genetic material of the cells was performed with propidium iodide and the technique of flow cytometry was applied for their separation, based on the amount of genetic material.
MCF7 cells were used as cancer cells, whereas primary cells and particularly embryonic mouse fibroblasts (Mouse Embryonic Fibroblasts, MEFs) were used as normal cells. The cells were incubated with the synthetic chemical compound AF-615/30368009 at a concentration of 100 µM and cultured for 23hrs in 100-mm dishes, to 80% confluency. Cells which had been incubated with only DMSO were used as a negative control sample. The next day of the incubation, cells were harvested using trypsin. […] The experiments were conducted using a Becton Dickinson flow cytometer and the data were analyzed by the WinMDi software version 2.8.
The graphs shown in Fig. 5 are representative of at least two independent experiments. The x axis represents the intensity of the fluorescence of propidium iodide and proportionally the amount of DNA content of the cells, while the y-axis corresponds to the number of events for each phase of the cell cycle.

SMILES: O=C(NNC(=S)N1CCOCC1)c1cnccn1 [AF-615/30368009, N'-(morpholine-4-carbothioyl)pyrazine-2-carbohydrazide]
- efficiency (E) of the FRET phenomenon [1]: decrease in (E), although not statistically significant
- percentage (%) of cells in G0/G1 and S phases (MCF7 cancer cells; MCF7, compared to DMSO control (Fig. 5B vs 5A)): significant increase
- population of cells corresponding to the G2/M phase of the cell cycle (MCF7 cancer cells; MCF7, in comparison to DMSO control (Fig. 5B vs 5A)): extremely limited
